Reference: patent US20230066011A1, “PYRROLOPYRIMIDINE DERIVATIVE, AND PHARMACEUTICAL COMPOSITION FOR PREVENTING OR TREATING PROTEIN KINASE-RELATED DISEASE COMPRISING SAME AS ACTIVE INGREDIENT” (VORONOI CO., LTD., priority 2019, published 2023)

Columns and labels:
LRRK2 = LRRK2 (Homo sapiens, UniProt Q5S007); experiment: LRRK2 enzyme inhibition, ADP-Glo kinase assay; format: biochemical; parameters: purchased Invitrogen PR8604B; settings: ATP 10 μM
In short: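 ADP-Glo luminescent read-out of ADP formed by purified human LRRK2 enzyme (25 ng), 10 μM ATP, 0.2 μg substrate, 25° C for 2 h, Tris-HCl pH 7.4 buffer with MgCl2, BSA, DTT. Inhibition versus untreated solvent control over twelve final concentrations (50 μM downward) gives IC50.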

MDA-MB-231 cell line = experiment: Inhibition of proliferation of MDA-MB-231 cancer cells (Cell Titer-Glo); format: cell-based; settings: Homo sapiens, 72 hours
In short: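 Luminescence from Cell Titer-Glo (10 min, room temperature) gave GI50 after 72 h compound treatment. Final compound levels spanned 0.000169–10.000000 μM over 11 points, 3-fold steps; 2,000 cells/well grown in DMEM or RPMI.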

TNF-α = experiment: Inhibition of LPS-induced TNF-α secretion of THP-1 monocytes (ELISA); format: cell-based, human; settings: Homo sapiens, THP-1; compound 0.5 μM, LPS 500 ng/mL, 24 hours; read-out: THP-1/TNF-α (% inhib)
Description: To evaluate an inhibitory effect on cytokine secretion of monocytes, THP-1 cells (ATCC, #TIB-202) as a human-derived monocyte line were cultured in an RPMI-1640 (Hyclone, SH30027.01) medium supplemented with 10% fetal bovine serum (Hyclone, SH30084.03), 1% penicillin streptomycin (Welgene, LS202-02), and 50 μM 2-mercaptoethanol (Gibco, #21985023). In the test, the cells were seeded in a 48-well plate (SPL, #30048) at a density of 1.5 to 2×10^5 cells/250 μL per well, and cultured at 37° C. for 16 hours in a 5% CO2 incubator. Thereafter, the compound was diluted with DMSO so that the final concentration of the compound was 0.5 μM. Then, the cells were treated with the diluted compound before an hour of treatment with lipopolysaccharides (LPS) (Sigma, #L6529). After the treatment with the compound, the cells were treated with LPS so that the final concentration was 500 ng/mL. Then, a cell culture broth was collected after 24 hours of culture, and levels of cytokine IL-6 (R&D Systems, #D6050) and TNF-α (R&D Systems, #DTA00D) comprised in the culture broth were measured using respective ELISA kits. After an experiment was performed according to the manufacturer's guidelines, cell analysis was performed by measuring the optical density at 450 nm using a microplate reader.

LRRK2, sequence (Q5S007 970-2527 limits assumed): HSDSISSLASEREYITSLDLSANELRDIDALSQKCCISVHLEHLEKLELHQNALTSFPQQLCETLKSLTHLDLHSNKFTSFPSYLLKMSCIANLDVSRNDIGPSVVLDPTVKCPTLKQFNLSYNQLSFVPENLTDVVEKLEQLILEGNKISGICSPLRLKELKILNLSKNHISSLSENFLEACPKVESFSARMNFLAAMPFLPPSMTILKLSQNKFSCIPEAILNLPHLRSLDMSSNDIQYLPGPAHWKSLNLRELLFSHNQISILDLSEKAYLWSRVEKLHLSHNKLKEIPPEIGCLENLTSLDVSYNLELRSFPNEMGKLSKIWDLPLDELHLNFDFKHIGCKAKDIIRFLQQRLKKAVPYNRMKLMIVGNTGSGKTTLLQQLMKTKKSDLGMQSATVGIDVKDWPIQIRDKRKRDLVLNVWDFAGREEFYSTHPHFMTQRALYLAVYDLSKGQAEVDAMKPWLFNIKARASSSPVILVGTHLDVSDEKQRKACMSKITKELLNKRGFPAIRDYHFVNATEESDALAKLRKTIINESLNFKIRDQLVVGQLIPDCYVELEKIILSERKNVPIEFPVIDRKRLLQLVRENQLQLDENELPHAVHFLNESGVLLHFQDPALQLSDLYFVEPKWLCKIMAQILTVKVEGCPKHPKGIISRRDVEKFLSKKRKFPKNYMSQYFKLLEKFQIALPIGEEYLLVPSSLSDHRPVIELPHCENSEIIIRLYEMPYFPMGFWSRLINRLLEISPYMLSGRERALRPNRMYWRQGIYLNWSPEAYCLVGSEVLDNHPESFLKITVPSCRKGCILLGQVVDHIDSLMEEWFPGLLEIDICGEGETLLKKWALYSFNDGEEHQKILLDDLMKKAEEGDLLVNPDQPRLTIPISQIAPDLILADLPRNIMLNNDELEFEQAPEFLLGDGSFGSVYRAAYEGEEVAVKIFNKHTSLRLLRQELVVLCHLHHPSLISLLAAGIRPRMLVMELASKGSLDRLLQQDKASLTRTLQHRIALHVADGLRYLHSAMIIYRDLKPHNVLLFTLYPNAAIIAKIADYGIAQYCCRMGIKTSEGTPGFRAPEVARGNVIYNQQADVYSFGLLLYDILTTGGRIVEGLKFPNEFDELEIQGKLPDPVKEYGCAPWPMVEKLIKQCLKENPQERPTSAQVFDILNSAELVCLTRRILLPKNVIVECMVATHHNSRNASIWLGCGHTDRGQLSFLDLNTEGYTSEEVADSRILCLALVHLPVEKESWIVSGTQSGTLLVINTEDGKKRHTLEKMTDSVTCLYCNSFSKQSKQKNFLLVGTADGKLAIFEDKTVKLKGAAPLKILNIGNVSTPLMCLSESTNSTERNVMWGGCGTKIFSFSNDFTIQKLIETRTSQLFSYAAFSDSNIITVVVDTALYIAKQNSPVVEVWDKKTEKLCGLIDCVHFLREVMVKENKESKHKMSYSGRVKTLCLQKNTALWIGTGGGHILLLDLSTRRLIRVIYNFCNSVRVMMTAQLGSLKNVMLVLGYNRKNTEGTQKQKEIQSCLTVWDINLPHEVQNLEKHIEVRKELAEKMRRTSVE

SMILES | IC50 (LRRK2) [nM] | GI50 (MDA-MB-231 cell line) [nM] | inhibition at 0.5 µM (TNF-α) [%]
COc1cc(S(=O)(=O)N2CCOCC2)ccc1Nc1nc(C2CC2)c2c(C#N)c[nH]c2n1 [Example 223, 4-cyclopropyl-2-((2-methoxy-4-(morpholinosulfonyl)phenyl)amino)-7H-pyrrolo[2,3-d]pyrimidine-5-carbonitrile] | 101 to 300 | 301 to 1000 | 
COc1cc(S(=O)(=O)N2CCC(N3CCOCC3)CC2)ccc1Nc1nc(C2CC2)c2c(C(F)(F)F)c[nH]c2n1 [Example 226] | 101 to 300 | 301 to 1000 | 
CNc1nc(Nc2cc(F)c(S(=O)(=O)N3CCC(N4CCOCC4)CC3)cc2OC)nc2[nH]cc(C(F)(F)F)c12 [Example 231, N^2-(5-fluoro-2-methoxy-4-((4-morpholinopiperidin-1-yl)sulfonyl)phenyl)-N^4-methyl-5-(trifluoromethyl)-7H-pyrrolo[2,3-d]pyrimidine-2,4-diamine] |  | 101 to 300 | 
CCNc1nc(Nc2cc(F)c(S(=O)(=O)N3CCC(N4CCOCC4)CC3)cc2OC)nc2[nH]cc(C(F)(F)F)c12 [Example 232, N^4-ethyl-N^2-(5-fluoro-2-methoxy-4-((4-morpholinopiperidin-1-yl)sulfonyl)phenyl)-5-(trifluoromethyl)-7H-pyrrolo[2,3-d]pyrimidine-2,4-diamine] |  | 301 to 1000 | 
CNc1nc(Nc2ccc(C(=O)N3CCN(C4COC4)CC3)c3c2OCCO3)nc2[nH]cc(C(F)(F)F)c12 [Example 397, (8-((4-(methylamino)-5-(trifluoromethyl)-7H-pyrrolo[2,3-d]pyrimidin-2-yl)amino)-2,3-dihydrobenzo[b] [1,4]dioxin-5-yl) (4-(oxetan-3-yl)piperazin-1-yl)methanone] | < 100 |  | 5.6
CCNc1nc(Nc2ccc(C(=O)N3CCN(C4COC4)CC3)c3c2OCCO3)nc2[nH]cc(C(F)(F)F)c12 [Example 400, (8-((4-(ethylamino)-5-(trifluoromethyl)-7H-pyrrolo[2,3-d]pyrimidin-2-yl)amino)-2,3-dihydrobenzo[b] [1,4]dioxin-5-yl) (4-(oxetan-3-yl)piperazin-1-yl)methanone] |  |  | 1
COCCNc1nc(Nc2ccc(C(=O)N3CCN(C4COC4)CC3)c3c2OCCO3)nc2[nH]cc(C(F)(F)F)c12 [Example 403, (8-((4-((2-methoxyethyl)-amino)-5-(trifluoromethyl)-7H-pyrrolo[2,3-d]pyrimidin-2-yl)amino)-2,3-dihydrobenzo[b] [1,4]dioxin-5-yl) (4-(oxetan-3-yl)piperazin-1-yl)methanone] | < 100 |  | 40.4
O=C(c1ccc(Nc2nc(NC3CC3)c3c(C(F)(F)F)c[nH]c3n2)c2c1OCCO2)N1CCN(C2COC2)CC1 [Example 405, (8-((4-(cyclo-propylamino)-5-(trifluoromethyl)-7H-pyrrolo[2,3-d]pyrimidin-2-yl)amino)-2,3-dihydrobenzo[b] [1,4]dioxin-5-yl) (4-(oxetan-3-yl)piperazin-1-yl)methanone] | < 100 |  | 
O=C(c1ccc(Nc2nc(NC3CCC3)c3c(C(F)(F)F)c[nH]c3n2)c2c1OCCO2)N1CCN(C2COC2)CC1 [Example 407, (8-((4-(cyclo-butylamino)-5-(trifluoromethyl)-7H-pyrrolo[2,3-d]pyrimidin-2-yl)amino)-2,3-dihydrobenzo[b] [1,4]dioxin-5-yl) (4-(oxetan-3-yl)piperazin-1-yl)methanone] | < 100 |  | 5.3
CNc1nc(Nc2ccc(P3(=O)CCN(C4CC4)CC3)cc2OC)nc2[nH]cc(C(F)(F)F)c12 [Example 411, 1-cyclopropyl-4-(3-methoxy-4-((4-(methylamino)-5-(trifluoromethyl)-7H-pyrrolo[2,3-d]pyrimidin-2-yl)amino)phenyl)-1,4-azaphosphinane-4-oxide] | < 100 |  | 

Now from value to compound, other results behind:

IC50 (LRRK2) [nM] | GI50 (MDA-MB-231 cell line) [nM] | SMILES | inhibition at 0.5 µM (TNF-α) [%]
< 100 | 101 to 300 | N#Cc1c[nH]c2nc(Nc3ccc(C(=O)N4CCOCC4)c4c3OCCO4)nc(NCC3CCCC3)c12 [Example 133, 4-((cyclopentylmethyl)amino)-2-((8-(morpholine-4-carbonyl)-2,3-dihydrobenzo[b][1,4]dioxin-5-yl)amino)-7H-pyrrolo[2,3-d]pyrimidine-5-carbonitrile] | 
< 100 |  | CCCNc1nc(Nc2ccc(C(=O)N3CCC(N4CCOCC4)CC3)c3c2OCCO3)nc2[nH]cc(C#N)c12 [Example 138, 2-((8-(4-morpholinopiperidine-1-carbonyl)-2,3-dihydrobenzo[b][1,4]dioxin-5-yl)amino)-4-(propylamino)-7H-pyrrolo[2,3-d]pyrimidine-5-carbonitrile] | 
< 100 | 101 to 300 | CCNc1nc(Nc2ccc(S(=O)(=O)N3CCC(N4CCOCC4)CC3)cc2OC)nc2[nH]cc(C(F)(F)F)c12 [Example 158, N^4-ethyl-N^2-(2-methoxy-4-((4-morpholinopiperidin-1-yl)sulfonyl)phenyl)-5-(trifluoromethyl)-7H-pyrrolo[2,3-d]pyrimidine-2,4-diamine 2,2,2-trifluoroacetate] | 
< 100 | 301 to 1000 | CCCNc1nc(Nc2ccc(S(=O)(=O)N3CCC(N4CCOCC4)CC3)cc2OC)nc2[nH]cc(C(F)(F)F)c12 [Example 161, N^2-(2-methoxy-4-((4-morpholinopiperidin-1-yl)sulfonyl)phenyl)-N^4-propyl-5-(trifluoromethyl)-7H-pyrrolo[2,3-d]pyrimidine-2,4-diamine] | 
< 100 |  | CNc1nc(Nc2ccc(C(=O)N3CCC(N4CCOCC4)CC3)c3c2OCC3)nc2[nH]cc(C(F)(F)F)c12 [Example 217, (7-((4-(methylamino)-5-(trifluoromethyl)-7H-pyrrolo[2,3-d]pyrimidin-2-yl)amino)-2,3-dihydrobenzofuran-4-yl)(4-morpholinopiperidin-1-yl)methanone] | 
< 100 |  | N#Cc1c[nH]c2nc(Nc3ccc(C(=O)N4CCC(N5CCOCC5)CC4)c4c3OCCO4)nc(C3CC3)c12 [Example 221, 4-cyclopropyl-2-((8-(4-morpholinopiperidine-1-carbonyl)-2,3-dihydrobenzo[b][1,4]dioxin-5-yl)amino)-7H-pyrrolo[2,3-d]pyrimidine-5-carbonitrile] | 
< 100 |  | COc1cc(S(=O)(=O)N2CCC(N3CCOCC3)CC2)ccc1Nc1nc(C2CC2)c2c(C#N)c[nH]c2n1 [Example 224, 4-cyclopropyl-2-((2-methoxy-4-((4-morpholinopiperidin-1-yl)sulfonyl)phenyl)amino)-7H-pyrrolo[2,3-d]pyrimidine-5-carbonitrile] | 
< 100 |  | O=C(c1ccc(Nc2nc(C3CC3)c3c(C(F)(F)F)c[nH]c3n2)c2c1OCCO2)N1CCC(N2CCOCC2)CC1 [Example 228, (8-((4-cyclopropyl-5-(trifluoromethyl)-7H-pyrrolo[2,3-d]pyrimidin-2-yl)amino)-2,3-dihydrobenzo[b][1,4]dioxin-5-yl)(4-morpholinopiperidin-1-yl)methanone] | 
< 100 |  | CNc1nc(Nc2ccc(C(=O)N3CC[C@H](N4CCOCC4)C3)c3c2OCC3)nc2[nH]cc(C(F)(F)F)c12 [Example 236, (S)-(7-((4-(methylamino)-5-(trifluoromethyl)-7H-pyrrolo[2,3-d]pyrimidin-2-yl)amino)-2,3-dihydrobenzofuran-4-yl)(3-morpholinopyrrolidin-1-yl)methanone] | 13.6
< 100 |  | CNc1nc(Nc2ccc(C(=O)N3CCC(N4CCOCC4)CC3)c3c2OCCO3)nc2[nH]cc(C(F)(F)F)c12 [Example 238, (8-((4-(methylamino)-5-(trifluoromethyl)-7H-pyrrolo[2,3-d]pyrimidin-2-yl)amino)-2,3-dihydrobenzo[b][1,4]dioxin-5-yl)(4-morpholinopiperidin-1-yl)methanone] | 
< 100 |  | CCN1CCP(=O)(c2ccc(Nc3nc(C4CC4)c4c(C#N)c[nH]c4n3)c(OC)c2)CC1 [Example 261] | 
< 100 |  | CCNc1nc(Nc2ccc(C(=O)N3CCC(N4CCOCC4)CC3)c3c2OCC3)nc2[nH]cc(C#N)c12 [Example 347, 4-(ethylamino)-2-((4-(4-morpholino-piperidine-1-carbonyl)-2,3-dihydro-benzofuran-7-yl)amino)-7H-pyrrolo[2,3-d]pyrimidine-5-carbonitrile] | 13.3
< 100 |  | C=CCNc1nc(Nc2ccc(S(=O)(=O)N3CCC(N4CCOCC4)CC3)cc2OC)nc2[nH]cc(C#N)c12 [Example 361, 4-(allylamino)-2-((2-methoxy-4-((4-morpholino-piperidin-1-yl)sulfonyl)phenyl)amino)-7H-pyrrolo[2,3-d]pyrimidine-5-carbonitrile] | 9.3
